The subject of data set [1] is Monocotyledonous and dicotyledonous weed. The experiment in a line: Post-emergence test experiment, weed control effect (Table 2). As to conditions: 3 weeks after spraying, greenhouse. Details: key to weed control effect, Setaria viridis (level) / weed control effect, Rorippa indica (level) / weed control effect, Abutilon theophrasti (level) / weed control effect, Echinochloa crus-galli (level) / weed control effect, Digitaria sanguinalis (level): Level 10: completely dead; Level 9: above 90% growth inhibition rate; Level 8: above 80% growth inhibition rate; Level 7: above 70% growth inhibition rate; Level 6: above 60% growth inhibition rate; Level 5: above 50% growth inhibition rate; Level 4: above 30% growth inhibition rate; Level 3: above 20% growth inhibition rate; Level 2: above 10% growth inhibition rate; Level 1: above 1-10% growth inhibition rate; Level 0: no effect. It counts as in vivo. In outline: (§1)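 Weed and crop seeds (wheat, corn, rice, soybean, cotton, oilseed, millet, sorghum) grown in soil in greenhouse; sprayed at 2-3 leaf stage, 2-3 weeks after sowing, with compound in acetone/Tween 80/water. Effects assessed after 3 weeks further greenhouse culture.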

For data set [2], the system named is main crop (wheat, corn, rice, soybean, cotton, oilseed, millet and sorghum). The experiment in a line: Post-emergence test experiment, main crops (Table 2). Also on record: key: Level 10: completely dead; Level 9: above 90% growth inhibition rate; Level 8: above 80% growth inhibition rate; Level 7: above 70% growth inhibition rate; Level 6: above 60% growth inhibition rate; Level 5: above 50% growth inhibition rate; Level 4: above 30% growth inhibition rate; Level 3: above 20% growth inhibition rate; Level 2: above 10% growth inhibition rate; Level 1: above 1-10% growth inhibition rate; Level 0: no effect. To be noted: 3 weeks after spraying, greenhouse. It is filed as in vivo. In outline:
as §1

SMILES strings stand for the structures.

As to `CCc1nn(CC)c(OC(=O)c2cn(C)nc2C)c1C(=O)c1ccc(S(C)(=O)=O)c(COCC(F)F)c1Cl` [Compound 94], in data set [1] (60 g/ha), the “weed control effect, Abutilon theophrasti (level)” value was found to be 10; the “weed control effect, Bidens pilosa (level)” value was 8 (Level 8: above 80% growth inhibition rate); the “weed control effect, Digitaria sanguinalis (level)” value was 8 (Level 8: above 80% growth inhibition rate); the “weed control effect, Echinochloa crus-galli (level)” value is listed as 8 (Level 8: above 80% growth inhibition rate). Besides, in data set [1] (60 g/ha), the “weed control effect, Rorippa indica (level)” value was 10 and the “weed control effect, Setaria viridis (level)” value is 10. In addition, in data set [2] (60 g/ha), the “effect on crop, corn (level)” value stood at 0; the “effect on crop, rice (level)” value is 3 (Level 3: above 20% growth inhibition rate); the “effect on crop, wheat (level)” value was determined as 0.

Regarding `CCc1nn(CC)c(OC(=O)c2cn(C)nc2C)c1C(=O)c1ccc(S(C)(=O)=O)c(Cn2nc(C)cc2C)c1Cl` [Compound 95], in data set [1] (120 g/ha), the “weed control effect, Abutilon theophrasti (level)” value is listed as 6 (Level 6: above 60% growth inhibition rate); the “weed control effect, Bidens pilosa (level)” value is 6 (Level 6: above 60% growth inhibition rate); the “weed control effect, Digitaria sanguinalis (level)” value was 1 (Level 1: above 1-10% growth inhibition rate); the “weed control effect, Echinochloa crus-galli (level)” value amounted to 10. In data set [1] (120 g/ha), the “weed control effect, Rorippa indica (level)” value was 4 (Level 4: above 30% growth inhibition rate) and the “weed control effect, Setaria viridis (level)” value is given as 3 (Level 3: above 20% growth inhibition rate). In addition, in data set [2] (120 g/ha), the “effect on crop, corn (level)” value is recorded as 0; the “effect on crop, rice (level)” value was 0; the “effect on crop, wheat (level)” value is reported as 0.

With `CCOCc1c(S(C)(=O)=O)ccc(C(=O)c2c(C3CC3)nn(C(C)C)c2OC(=O)c2cn(C)nc2C)c1Cl` [Compound 96], in data set [1] (60 g/ha), the “weed control effect, Abutilon theophrasti (level)” value was determined as 10; the “weed control effect, Bidens pilosa (level)” value was 8 (Level 8: above 80% growth inhibition rate); the “weed control effect, Digitaria sanguinalis (level)” value is 8 (Level 8: above 80% growth inhibition rate); the “weed control effect, Echinochloa crus-galli (level)” value is 10. In data set [1] (60 g/ha), the “weed control effect, Rorippa indica (level)” value was 10 and the “weed control effect, Setaria viridis (level)” value is 10. In data set [2] (60 g/ha), the “effect on crop, corn (level)” value came to 0; the “effect on crop, rice (level)” value is reported as 4 (Level 4: above 30% growth inhibition rate); the “effect on crop, wheat (level)” value was 0.

Turning to `Cc1cnn(Cc2c(S(C)(=O)=O)ccc(C(=O)c3cnn(C(C)C)c3OC(=O)c3cn(C)nc3C)c2Cl)c1` [Compound 97], in data set [1] (120 g/ha), the “weed control effect, Abutilon theophrasti (level)” value is reported as 6 (Level 6: above 60% growth inhibition rate); the “weed control effect, Bidens pilosa (level)” value is reported as 6 (Level 6: above 60% growth inhibition rate); the “weed control effect, Digitaria sanguinalis (level)” value is 1 (Level 1: above 1-10% growth inhibition rate); the “weed control effect, Echinochloa crus-galli (level)” value was 10. In data set [1] (120 g/ha), the “weed control effect, Rorippa indica (level)” value is 4 (Level 4: above 30% growth inhibition rate) and the “weed control effect, Setaria viridis (level)” value is listed as 3 (Level 3: above 20% growth inhibition rate). For the same molecule, in data set [2] (120 g/ha), the “effect on crop, corn (level)” value was found to be 0; the “effect on crop, rice (level)” value worked out at 0; the “effect on crop, wheat (level)” value worked out at 0.

For `Cc1nn(C)cc1C(=O)Oc1c(C(=O)c2ccc(S(C)(=O)=O)c(COCC(F)(F)F)c2Cl)c(C)nn1C(C)C` [Compound 98], in data set [1] (30 g/ha), the “weed control effect, Abutilon theophrasti (level)” value is on record as 5 (Level 5: above 50% growth inhibition rate); the “weed control effect, Bidens pilosa (level)” value is 7 (Level 7: above 70% growth inhibition rate); the “weed control effect, Digitaria sanguinalis (level)” value is listed as 8 (Level 8: above 80% growth inhibition rate); the “weed control effect, Echinochloa crus-galli (level)” value stood at 10. For the same molecule, in data set [1] (30 g/ha), the “weed control effect, Rorippa indica (level)” value is 10 and the “weed control effect, Setaria viridis (level)” value was found to be 10. For the same molecule, in data set [2] (30 g/ha), the “effect on crop, corn (level)” value is on record as 1 (Level 1: above 1-10% growth inhibition rate); the “effect on crop, rice (level)” value was 5 (Level 5: above 50% growth inhibition rate); the “effect on crop, wheat (level)” value is listed as 0.

In the case of `CCc1nn(C(C)C)c(OC(=O)c2cn(C)nc2C)c1C(=O)c1ccc(S(C)(=O)=O)c(Cn2cccn2)c1Cl` [Compound 99], in data set [1] (30 g/ha), the “weed control effect, Abutilon theophrasti (level)” value was 7 (Level 7: above 70% growth inhibition rate); the “weed control effect, Bidens pilosa (level)” value is reported as 7 (Level 7: above 70% growth inhibition rate); the “weed control effect, Digitaria sanguinalis (level)” value is listed as 7 (Level 7: above 70% growth inhibition rate); the “weed control effect, Echinochloa crus-galli (level)” value is 10. Further, in data set [1] (30 g/ha), the “weed control effect, Rorippa indica (level)” value is given as 10 and the “weed control effect, Setaria viridis (level)” value is 8 (Level 8: above 80% growth inhibition rate). In addition, in data set [2] (30 g/ha), the “effect on crop, corn (level)” value is listed as 1 (Level 1: above 1-10% growth inhibition rate); the “effect on crop, rice (level)” value is given as 1 (Level 1: above 1-10% growth inhibition rate); the “effect on crop, wheat (level)” value is 0.

Turning to `Cc1nn(C)cc1C(=O)Oc1c(C(=O)c2ccc(S(C)(=O)=O)c(COCC3CCCO3)c2Cl)c(C)nn1C(C)C` (stereo not drawn) [Compound 101], in data set [1] (250 g/ha), the “weed control effect, Abutilon theophrasti (level)” value was 7 (Level 7: above 70% growth inhibition rate); the “weed control effect, Bidens pilosa (level)” value is listed as 7 (Level 7: above 70% growth inhibition rate); the “weed control effect, Digitaria sanguinalis (level)” value is on record as 6 (Level 6: above 60% growth inhibition rate); the “weed control effect, Echinochloa crus-galli (level)” value is 9 (Level 9: above 90% growth inhibition rate). In data set [1] (250 g/ha), the “weed control effect, Rorippa indica (level)” value was found to be 10 and the “weed control effect, Setaria viridis (level)” value is 7 (Level 7: above 70% growth inhibition rate). For the same molecule, in data set [2] (250 g/ha), the “effect on crop, corn (level)” value is 1 (Level 1: above 1-10% growth inhibition rate); the “effect on crop, rice (level)” value is on record as 8 (Level 8: above 80% growth inhibition rate); the “effect on crop, wheat (level)” value was 0.

`Cn1cc(Cl)c(C(=O)Oc2c(C(=O)c3ccc(S(C)(=O)=O)c(COCC(F)F)c3Cl)cnn2C)n1` [Compound 102]: in data set [1] (30 g/ha), the “weed control effect, Abutilon theophrasti (level)” value is recorded as 7 (Level 7: above 70% growth inhibition rate); the “weed control effect, Bidens pilosa (level)” value is recorded as 7 (Level 7: above 70% growth inhibition rate); the “weed control effect, Digitaria sanguinalis (level)” value is 7 (Level 7: above 70% growth inhibition rate); the “weed control effect, Echinochloa crus-galli (level)” value was 10. In data set [1] (30 g/ha), the “weed control effect, Rorippa indica (level)” value was 10 and the “weed control effect, Setaria viridis (level)” value is listed as 6 (Level 6: above 60% growth inhibition rate). For the same molecule, in data set [2] (30 g/ha), the “effect on crop, corn (level)” value is 1 (Level 1: above 1-10% growth inhibition rate); the “effect on crop, rice (level)” value is listed as 5 (Level 5: above 50% growth inhibition rate); the “effect on crop, wheat (level)” value is listed as 0.

Consider `Cc1cc(C)n(Cc2c(S(C)(=O)=O)ccc(C(=O)c3c(C)nn(C(C)C)c3OC(=O)c3nn(C)cc3Cl)c2Cl)n1` [Compound 103], for which, in data set [1] (120 g/ha), the “weed control effect, Abutilon theophrasti (level)” value was 7 (Level 7: above 70% growth inhibition rate); the “weed control effect, Bidens pilosa (level)” value is given as 7 (Level 7: above 70% growth inhibition rate); the “weed control effect, Digitaria sanguinalis (level)” value was 2 (Level 2: above 10% growth inhibition rate); the “weed control effect, Echinochloa crus-galli (level)” value came out at 10. Further, in data set [1] (120 g/ha), the “weed control effect, Rorippa indica (level)” value is given as 10 and the “weed control effect, Setaria viridis (level)” value is reported as 3 (Level 3: above 20% growth inhibition rate). In data set [2] (120 g/ha), the “effect on crop, corn (level)” value was 1 (Level 1: above 1-10% growth inhibition rate); the “effect on crop, rice (level)” value turned out to be 0; the “effect on crop, wheat (level)” value amounted to 0.

On to `CCOCc1c(S(C)(=O)=O)ccc(C(=O)c2c(CC)nn(CC)c2OC(=O)c2nn(C)cc2Cl)c1Cl` [Compound 104], for which, in data set [1] (60 g/ha), the “weed control effect, Abutilon theophrasti (level)” value came to 10; the “weed control effect, Bidens pilosa (level)” value is reported as 8 (Level 8: above 80% growth inhibition rate); the “weed control effect, Digitaria sanguinalis (level)” value worked out at 10; the “weed control effect, Echinochloa crus-galli (level)” value is reported as 10. In addition, in data set [1] (60 g/ha), the “weed control effect, Rorippa indica (level)” value came to 10 and the “weed control effect, Setaria viridis (level)” value turned out to be 10. In addition, in data set [2] (60 g/ha), the “effect on crop, corn (level)” value was 0; the “effect on crop, rice (level)” value was 4 (Level 4: above 30% growth inhibition rate); the “effect on crop, wheat (level)” value stood at 0.

On to `CCc1nn(C)c(C(=O)Oc2c(C(=O)c3ccc(S(C)(=O)=O)c(COCC(F)(F)F)c3Cl)cnn2C)c1Cl` [Compound 105], for which, in data set [1] (60 g/ha), the “weed control effect, Abutilon theophrasti (level)” value turned out to be 10; the “weed control effect, Bidens pilosa (level)” value is reported as 8 (Level 8: above 80% growth inhibition rate); the “weed control effect, Digitaria sanguinalis (level)” value was 9 (Level 9: above 90% growth inhibition rate); the “weed control effect, Echinochloa crus-galli (level)” value is recorded as 10. In addition, in data set [1] (60 g/ha), the “weed control effect, Rorippa indica (level)” value is given as 10 and the “weed control effect, Setaria viridis (level)” value is recorded as 10. For the same molecule, in data set [2] (60 g/ha), the “effect on crop, corn (level)” value was 0; the “effect on crop, rice (level)” value is 4 (Level 4: above 30% growth inhibition rate); the “effect on crop, wheat (level)” value was determined as 0.

The values above are taken from patent US10556888B2, “Pyrazole compounds or salts thereof, preparation methods therefor, herbicidal compositions and use thereof” (QINGDAO KINGAGROOT CHEMICAL COMPOUNDS CO., LTD, priority 2015, dated 2020).
